Experimental data: ChEMBL document CHEMBL1136837, “Unified QSAR approach to antimicrobials. 4. Multi-target QSAR modeling and comparative multi-distance study of the giant components of antiviral drug-drug complex networks” (Bioorg Med Chem, 2009)

Columns and labels:
[1] = tested on: Hepatitis B virus; assay: Antiviral activity against Hepatitis B virus; type: functional, organism-based
[2] = tested on: Hepatitis C virus; assay: Antiviral activity against Hepatitis C virus; type: functional, organism-based, Hepacivirus hominis; details: Hepatitis C virus
[3] = tested on: unidentified influenza virus; assay: Antiviral activity against influenza virus; type: functional, organism-based
[4] = tested on: Human papillomavirus; assay: Antiviral activity against Human papillomavirus; type: functional, organism-based
[5] = tested on: Cowpox virus; assay: Antiviral activity against Cowpox virus; type: functional, organism-based
[6] = tested on: Human alphaherpesvirus 3; assay: Antiviral activity against Varicella zoster virus; type: functional, organism-based
[7] = tested on: Human immunodeficiency virus 1; assay: Antiviral activity against HIV1; type: functional, organism-based
[8] = tested on: Human immunodeficiency virus 2; assay: Antiviral activity against HIV2; type: functional, organism-based

Compound	IC50 [1] [µM]	IC50 [4] [µM]	further results
COc1cccc(Sc2nc(N)nc3c2ncn3CCOCP(=O)(OCC(F)(F)F)OCC(F)(F)F)c1	0.04	–	–
CCCOc1ccc(Sc2nc(N)nc3c2ncn3CCOCP(=O)(OCC(F)(F)F)OCC(F)(F)F)cc1	0.87	–	–
Cc1ccccc1Sc1nc(N)nc2c1ncn2CCOCP(=O)(OCC(F)(F)F)OCC(F)(F)F	0.08	–	–
Nc1nc(Sc2ccc3ccccc3c2)c2ncn(CCOCP(=O)(OCC(F)(F)F)OCC(F)(F)F)c2n1	0.09	–	–
Cc1ccc(Sc2nc(N)nc3c2ncn3CCOCP(=O)(OCC(F)(F)F)OCC(F)(F)F)cc1	0.06	–	–
Nc1nc(Sc2ccccc2)c2ncn(CCOCP(=O)(OCC(F)(F)F)OCC(F)(F)F)c2n1	0.05	–	–
Nc1nc(Sc2ccc([N+](=O)[O-])cc2)c2ncn(CCOCP(=O)(OCC(F)(F)F)OCC(F)(F)F)c2n1	0.52	–	–
CCc1ccc(Sc2nc(N)nc3c2ncn3CCOCP(=O)(OCC(F)(F)F)OCC(F)(F)F)cc1	0.4	–	–
Nc1nc(Sc2ccc(OC(F)(F)F)cc2)c2ncn(CCOCP(=O)(OCC(F)(F)F)OCC(F)(F)F)c2n1	0.06	–	–
CCOc1ccc(Sc2nc(N)nc3c2ncn3CCOCP(=O)(OCC(F)(F)F)OCC(F)(F)F)cc1	0.64	–	–
CCCCOc1ccc(Sc2nc(N)nc3c2ncn3CCOCP(=O)(OCC(F)(F)F)OCC(F)(F)F)cc1	1	–	–
CC(C)c1ccc(Sc2nc(N)nc3c2ncn3CCOCP(=O)(OCC(F)(F)F)OCC(F)(F)F)cc1	0.98	–	–
Cc1cn([C@H]2C[C@H](OP(=O)(S)OC[C@H]3O[C@@H](n4cnc5c(N)ncnc54)C[C@@H]3O)[C@@H](COP(=O)(S)O[C@H]3C[C@H](n4ccc(N)nc4=O)O[C@@H]3CO)O2)c(=O)[nH]c1=O (stereo partly specified)	2.1	–	IC50 [2]: 1 µM
Nc1ncnc2c1ccn2[C@H]1C[C@H](OP(=O)(S)OC[C@H]2O[C@@H](n3cnc4c(N)ncnc43)C[C@@H]2O)[C@@H](CO)O1 (stereo partly specified)	0.3	–	IC50 [2]: 1 µM
O=C(O)C(=O)CCc1ccccc1	–	–	IC50 [3]: 500 µM; IC50 [2]: 50 µM
CC(C)CC1=N/C(=C\c2ccc(F)cc2)C(=O)NC1=O	–	–	IC50 [3]: 365 µM
O=C(Nc1ccccc1)Nc1ccc2c(C(=O)c3ccccc3)c(O)n(O)c2c1	–	–	IC50 [3]: 29 µM
CC(=O)c1c(O)n(O)c2cc(NC(=O)c3ccc4ccccc4c3)ccc12	–	–	IC50 [3]: 9 µM
O=c1[nH]c2nccnc2c(=O)n1O	–	–	IC50 [3]: 95 µM
O=C1Cc2ccccc2CN1O	–	–	IC50 [3]: 100 µM
O=c1c2nccnc2ncn1O	–	–	IC50 [3]: 500 µM
O=C1Cc2ccccc2C(=O)N1O	–	–	IC50 [3]: 710 µM
O=C(O)CS(=O)(=O)c1ccc(-c2ccc(CC(=O)NCc3ccccc3)cc2)cc1	–	0.34	–

Compound	IC50 [1] [µM]	IC50 [4] [µM]	further results
O=S(=O)(Cc1nnn[nH]1)c1ccc(-c2ccccc2)cc1	–	63	–
O=C(O)CS(=O)(=O)c1ccc(-c2cccc(C(=O)N3CCOCC3)c2)cc1	–	22	–
O=P(O)(O)CS(=O)(=O)c1ccc(-c2ccccc2)cc1	–	30	–
O=C(O)CS(=O)(=O)c1ccc(-c2ccc(CC(=O)Nc3ccccc3)cc2)cc1	–	0.16	–
O=C(O)CS(=O)(=O)c1ccc2ccccc2c1	–	40	–
Cc1cccc(CNC(=O)c2cccc(-c3ccc(S(=O)(=O)CC(=O)O)cc3)c2)c1C	–	0.0092	–
Cc1cccc(CNC(=O)c2cccc(-c3ccc(S(=O)(=O)CC(=O)O)cc3)c2)c1	–	0.027	–
O=C(O)CS(=O)(=O)c1ccc(-c2ccc(C(=O)Nc3ccccc3)cc2)cc1	–	1.3	–
O=C(O)CS(=O)(=O)c1ccc(-c2ccc(C(=O)N(Cc3ccccc3)Cc3ccccc3)cc2)cc1	–	1.1	–
O=[N+]([O-])CS(=O)(=O)c1ccc(-c2ccccc2)cc1	–	65	–
O=C(O)CSc1ccc(-c2ccccc2)cc1	–	80	–
O=S(=O)(O)CS(=O)(=O)c1ccc(-c2ccccc2)cc1	–	32	–
O=C(NCc1cccc2ccccc12)c1cccc(-c2ccc(C(=O)C(F)(F)P(=O)(O)O)cc2)c1	–	0.74	–
O=C(O)CS(=O)(=O)c1ccc(-c2ccc(C(=O)NCc3ccccc3)cc2)cc1	–	0.51	–
O=C(O)CS(=O)(=O)c1ccc(-c2cccc(CC(=O)Nc3ccccc3)c2)cc1	–	0.11	–
CS(=O)(=O)c1ccc(-c2ccccc2)cc1	–	80	–
Nc1nc(NC2CC2)c2ncn(CCOCP(=O)(O)O)c2n1	–	–	IC50 [5]: 28 µM
Nc1ncnc2c1ncn2/C=C1/CC1(F)CO (stereo unspecified)	20	–	IC50 [6]: 14 µM; IC50 [7]: 12 µM
O=C1c2ccccc2C(=O)N1O	–	–	IC50 [3]: 500 µM
O=C1CCc2ccccc2C(=O)N1O	–	–	IC50 [3]: 1000 µM
O=C(Nc1ccc2c(C(=O)c3ccccc3)c(O)n(O)c2c1)NC1CCCCC1	–	–	IC50 [3]: 50 µM
NN1C(=O)Cc2ccccc2C1=O	–	–	IC50 [3]: 800 µM
CN(C)c1cc(=O)n(CCOCP(=O)(O)O)c(N)n1	–	–	IC50 [8]: 0.000342 µM
